These results are taken from PubChem BioAssay (NCI).

Common to all, as to assay: DTP human tumour cell line panel, 48 h
For assay [1], the system named is HL-60(TB) leukemia.
The test system of assay [2] is EKVX NSCLC.
Assay [3] relates to OVCAR-3 ovarian.
The subject of assay [4] is MCF7 breast.
Assay [5] concerns UACC-257 melanoma.
Assay [6] relates to M14 melanoma.
In assay [7] the test system is MALME-3M melanoma.
In assay [8] the test system is 786-0 renal.
Assay [9] relates to K-562 leukemia.
Assay [10] deals with BT-549 breast.

In general, TGI refers to the concentration giving total growth inhibition. Low values mean greater sensitivity of the cells, high ones lower sensitivity of the cells. Usually GI50 stands for the concentration giving 50% growth inhibition.

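All cell lines were grown in 96-well plates and treated with compound for 48 hours. GI50 = concentration required for 50% inhibition of growth. Definition used: TGI = concentration required for complete inhibition of growth.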

As for `COc1ccc(CN=C(N)N)c2ccccc12`, the TGI in assay [1] was 91 µM; in assay [2], over 100 µM; in assay [3], over 100 µM; in assay [4], over 100 µM; in [5], over 100 µM; in [6], over 100 µM. Moreover, the results for the TGI in [7] and in assay [8] were 34.7 µM and over 100 µM, respectively.
With `CCOC(=O)CNc1nc(=O)c2c(=O)oc(Cl)cc2o1`, the TGI turned out to be 29.6 µM in assay [2]; 25.5 µM in [3]; 38.4 µM in [5]; 49.1 µM in [6]; 23.5 µM in [7]; 21.9 µM in assay [8]. The same compound yielded a concentration for total growth inhibition (TGI) in assay [9] of 24.4 µM.
Consider `COC(=O)[C@H](Cc1c[nH]c2ccccc12)NC(=O)c1ccc(CNC(=O)/C=C/c2cccc(Oc3ccccc3)c2)cc1`, for which the TGI was over 100 µM in [2]; over 100 µM in assay [3]; over 100 µM in assay [4]; 40.3 µM in [5]; over 100 µM in [6]; over 100 µM in [7]. In addition, the total growth inhibition concentration (TGI) in assay [10], in assay [8] and in assay [9] was over 100 µM throughout.
For `O=CC12C3CCC1C2C(=O)C3` (configuration not stated), the TGI in assay [2], in assay [3], in assay [4], in assay [5], in [6] and in assay [7] was over 100 µM throughout. Further, the total growth inhibition concentration (TGI) in assay [10], in assay [8] and in assay [9] was over 100 µM each time.
For the compound `CC(C)C(N)=O`, the TGI in assay [1], in assay [5], in [6], in [7], in [8] and in [9] was over 5000 µM in each case.
Consider `CC(C)C1=CC23CCC4C(C)(C(=O)O)CCCC4(C)C2CC1C1C(=O)N(c2ccccc2)C(=O)C13` (configuration not stated), for which the TGI in [1] was over 100 µM; in [3], over 100 µM; in assay [5], 84.2 µM; in assay [6] it was over 100 µM; in [7], over 100 µM; in assay [8], over 100 µM. Further, in assay [9], the TGI is over 100 µM.
Regarding `COc1ccc(N2C=Nn3c(nc4sc5c(c4c3=O)CCCC5)C2)cc1`, the TGI in [2] was over 100 µM; in assay [3], over 100 µM; in assay [4], over 100 µM; in assay [5], over 100 µM; in assay [6], over 100 µM; in [7] it was 78 µM. Also, the total growth inhibition concentration (TGI) in assay [10] was over 100 µM; in assay [8] it was 20.7 µM; in assay [9], over 100 µM.
For `CC(=O)NC1=C[C@@H]([C@H]2COC(C)(C)O2)OC1=O`, the TGI in assay [1], in assay [2], in assay [3], in [4], in [5] and in [7] was over 100 µM throughout. Also, the total growth inhibition concentration (TGI) in assay [9] is over 100 µM.
As for `COc1cc2cc(C(=O)N3CC(CCl)c4c3cc(N)c3ccccc43)[nH]c2c(OC)c1OC` (configuration not stated), the TGI in assay [2] was under 0.01 µM; in [3], under 0.01 µM; in assay [7], under 0.01 µM; in assay [8], 0.0102 µM; in assay [9], under 0.01 µM.
`O=C1CC(c2cccc(Br)c2)n2cccc21` (configuration not stated): the TGI in [1] was 87.3 µM; in assay [2] it was over 100 µM; in assay [3] it was over 100 µM; in [4], over 100 µM; in assay [5], over 100 µM; in [6], over 100 µM. Further, the total growth inhibition concentration (TGI) in assay [8] and in assay [9] was over 100 µM throughout.
For the compound `COc1cc2c(cc1OC)C1(COc3cc(O)c(O)c(O)c3C1=O)C2` (configuration not stated), the TGI is over 50 µM in assay [1]; over 50 µM in assay [3]; 41.1 µM in assay [4]; over 50 µM in assay [5]; over 50 µM in [6]; over 50 µM in [7]. Moreover, the TGI in assay [8] and in assay [9] was over 50 µM throughout.
Consider `COC(C)(C)C1(O)CCC(C)CC1=O` (configuration not stated), for which the TGI in assay [1], in [2], in assay [3], in [5], in assay [6] and in assay [7] was over 100 µM in each case. For the same compound, the TGI in assay [10] and in [8] was over 100 µM in each case.
Consider `O=C(O)Cc1ccc2[nH]c(O)c(C3=Nc4ccccc4C3=O)c2c1`, for which the TGI in assay [2] is over 100 µM; in assay [3], 67.3 µM; in assay [4], 36.1 µM; in [5], over 100 µM; in [6] it was over 100 µM; in assay [7], over 100 µM. The TGI in assay [10], in assay [8] and in assay [9] was over 100 µM throughout.
Regarding `CC(=O)N=C1N(/C=C2\C(=O)Oc3ccccc3C2=O)C(=O)/C(=C/c2ccc(NC(C)=O)cc2)N1C`, the TGI in [1], in assay [2], in assay [3], in assay [4], in [5] and in assay [6] was over 100 µM each time. In addition, the total growth inhibition concentration (TGI) in assay [7], in assay [8] and in [9] was over 100 µM in each case.
Consider `Cc1csc(/N=C\c2c(O)c3ccccc3oc2=O)n1`, for which the TGI in assay [2] was 99.3 µM; in assay [3] it was over 100 µM; in [4] it was over 100 µM; in assay [5], over 100 µM; in [6] it was over 100 µM; in assay [7], 70.3 µM. Moreover, the TGI in assay [10], in assay [8] and in [9] was over 100 µM each time.
As to `CCOC(=O)c1sc2[n+](c1C)C(=O)/C(=C/c1ccc([N+](=O)[O-])cc1)S2`, the TGI in assay [1] was over 100 µM; in assay [3], 24.1 µM; in assay [4], 62.6 µM; in assay [5], 98 µM; in assay [6] it was over 100 µM; in assay [8], 56.8 µM. In addition, the TGI in assay [9] was 83.4 µM.
Regarding `COc1ccc(C2SCC(=O)N2NC(=O)c2ccc(NC(C)=O)cc2)cc1` (configuration not stated), the TGI in assay [2], in assay [3], in [4], in assay [5], in assay [6] and in assay [10] was over 100 µM each time. Moreover, the TGI in assay [8] and in assay [9] was over 100 µM throughout.
With `CN(C)CCCn1nc(N)c2nc3cc(Cl)ccc3nc21`, the TGI was over 100 µM in [2]; over 100 µM in assay [3]; over 100 µM in [4]; 59.3 µM in assay [5]; 47.4 µM in assay [6]; over 100 µM in assay [7]. The TGI in [10], in assay [8] and in assay [9] was over 100 µM throughout.
For `O=C(Nc1ccc(-n2ccc3c(NC(=O)c4ccccc4)ncnc32)cc1)Nc1cccc(Cl)c1Cl`, the GI50 is 13.6 µM in assay [1]; 1.3 µM in [2]; 1.19 µM in assay [3]; 1.12 µM in [4]; 2.15 µM in [5]; 0.973 µM in [6]. Further, the results for the GI50 in assay [7] and in assay [9] were 1.04 µM and 0.985 µM, respectively. Besides, the TGI in assay [1] was over 50 µM; in [2] it was 4.59 µM; in [3], 2.75 µM; in assay [4] it was 5.81 µM; in assay [5] it was 7.7 µM; in assay [6] it was 2.11 µM. For the same compound, the total growth inhibition concentration (TGI) in assay [7] came out at 4.13 µM; in assay [9] it was 6.04 µM.
For `O=C1CCCCCCCCCCC1CN1CCCCC1` (configuration not stated), the TGI in [1], in assay [2], in assay [3], in assay [5], in [7] and in assay [8] was over 100 µM throughout. In assay [9], this compound gave a TGI of over 100 µM.
`CC(=O)OC[C@@H](OC(C)=O)[C@H](OC(C)=O)[C@@H]1OC(C)(C)O[C@@H]1C1SCCCS1`: the TGI in assay [2], in [3], in [4], in assay [5], in assay [6] and in assay [7] was over 100 µM each time. Also, the TGI in [10], in [8] and in assay [9] was over 100 µM each time.
As for `CC(C)(C)C(=O)OC12/C(=N/O)CCCCCC1c1ccccc12` (configuration not stated), the TGI in assay [1] turned out to be 45.5 µM; in [3], 32.1 µM; in [5], 28.5 µM; in assay [6], 31.2 µM; in [7], 37.4 µM; in assay [8], 31 µM. The same compound returned a concentration for total growth inhibition (TGI) in [9] of 55.4 µM.
For the compound `O=C1Nc2ccc(Cl)cc2/C1=C\c1c(Cl)nc2sccn12`, the TGI in [1] is 33.7 µM; in assay [3] it was 12.4 µM; in assay [5], over 100 µM; in assay [6], over 100 µM; in assay [7], over 100 µM; in [10], over 100 µM. In assay [9], the TGI is over 100 µM.
Turning to `O=c1[nH]nc(Cc2ccccc2)n1CCO`, the TGI in [2], in assay [3], in assay [4], in [5], in assay [6] and in [7] was over 100 µM in each case. Further, the TGI in [10], in assay [8] and in assay [9] was over 100 µM each time.
With `N#Cc1c(-c2ccccc2)c(N=Nc2ccc(Cl)cc2)c(=O)n2c1[nH]c1ccccc12`, the TGI in assay [2], in assay [3], in assay [4], in [5], in [6] and in assay [7] was over 100 µM each time. Besides, the TGI is over 100 µM in assay [10] and 73.2 µM in [8].
Regarding `C=C(OC1C(C)=C2C(C1OC(=O)CCCCCCC)C(C)(OC(C)=O)CC(OC(=O)CCC)C1(O)C2OC(=O)C1(C)O)/C(C)=C/C` (configuration not stated), the GI50 is under 0.0001 µM in [1]; under 0.0001 µM in assay [2]; under 0.0001 µM in assay [3]; 0.000269 µM in assay [5]; 0.000907 µM in [7]; under 0.0001 µM in assay [9]. Further, the TGI came out at 0.896 µM in assay [2]; 0.191 µM in [4]; 11.9 µM in assay [5]; 0.131 µM in [7]; 5.38 µM in [9].
Take `O=C1c2cc(Cl)ccc2NC(=NCCCl)C2CSCN12` (configuration not stated): the TGI in [2], in assay [3], in assay [4], in [5], in assay [6] and in assay [7] was over 100 µM in each case. Also, the TGI in assay [10], in assay [8] and in assay [9] was over 100 µM each time.
For `Oc1ccc(Cl)cc1CN1CCN(Cc2cc(Cl)ccc2O)C1`, the TGI was determined as 7.41 µM in [1]; 6.09 µM in assay [2]; 11.8 µM in assay [3]; 24.1 µM in assay [4]; 5.48 µM in [5]; 2.87 µM in assay [6]. The TGI in assay [7] was 8.29 µM; in assay [8] it was 5.93 µM; in [9], 5.86 µM.
As to `CCOC(=O)CC1(c2cccc3ccccc23)OC(=O)c2ccccc21` (configuration not stated), the TGI in [1] is 54.1 µM; in [2], over 100 µM; in assay [3], over 100 µM; in assay [5] it was over 100 µM; in assay [7] it was 96.2 µM; in assay [9] it was over 100 µM.
For `Nc1nc(N)c2cc(NCc3ccc(Cl)c(Cl)c3)ccc2n1`, the GI50 in [1] is 1.35 µM; in [3] it was 1.03 µM; in [4] it was 1.36 µM; in assay [5] it was 1.71 µM; in [6] it was 0.841 µM. In addition, the TGI in [1] was 2.93 µM; in assay [3], 2.24 µM; in assay [4], 2.75 µM; in assay [5], 3.22 µM; in [6] it was 2.16 µM.
On to `c1csc(C[N+]23CN4CN(CN(C4)C2)C3)c1`, for which the total growth inhibition concentration (TGI) is 33.2 µM in [1]; over 100 µM in assay [3]; over 100 µM in assay [5]; 32.2 µM in assay [6]; 33.2 µM in assay [7]; 58.8 µM in assay [8]. In addition, the TGI in assay [9] is 48.8 µM.
